Measurements taken from ChEMBL document CHEMBL4425114, “Development of Novel Alkoxyisoxazoles as Sigma-1 Receptor Antagonists with Antinociceptive Efficacy” (J Med Chem, 2016).
pKi: −log10 of the molar value. Calls of active or inactive are those of the source. The calls are words filed in the database; no cut-off is given here.

How the values were obtained:
[1] = target: Sigma non-opioid intracellular receptor 1 (Rattus norvegicus, UniProt Q9R0C9); assay: Displacement of [3H]-pentazocine from rat brain sigma1 receptor by PDSP assay
Sequence of Sigma non-opioid intracellular receptor 1 (Q9R0C9 whole entry): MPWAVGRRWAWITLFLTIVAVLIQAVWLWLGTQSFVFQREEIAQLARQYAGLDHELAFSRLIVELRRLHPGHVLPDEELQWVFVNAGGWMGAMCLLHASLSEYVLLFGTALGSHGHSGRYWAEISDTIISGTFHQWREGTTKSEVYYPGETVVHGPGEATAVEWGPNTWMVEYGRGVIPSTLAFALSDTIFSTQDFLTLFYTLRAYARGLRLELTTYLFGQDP

[2] = target: T1, Sigma intracellular receptor 2 (Rattus norvegicus, UniProt Q5U3Y7); assay: Displacement of [3H]DTG from rat brain sigma2 receptor by PDSP assay
T1 sequence (Q5U3Y7 whole entry): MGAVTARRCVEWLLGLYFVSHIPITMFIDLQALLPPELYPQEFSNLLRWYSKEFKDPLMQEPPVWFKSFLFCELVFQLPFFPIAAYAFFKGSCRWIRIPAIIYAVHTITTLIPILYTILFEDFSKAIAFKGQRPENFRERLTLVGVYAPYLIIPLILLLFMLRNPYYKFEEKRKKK

[3] = target: Sigma non-opioid intracellular receptor 1 (Rattus norvegicus) (UniProt Q9R0C9); assay: Displacement of [3H]-pentazocine from rat brain sigma1 receptor at 10 uM by PDSP assay
Sequence of Sigma non-opioid intracellular receptor 1 (Rattus norvegicus) (Q9R0C9 whole entry): as the sequence (Q9R0C9 whole entry) above

[4] = target: T2, Sigma intracellular receptor 2 (Rattus norvegicus) (UniProt Q5U3Y7); assay: Displacement of [3H]DTG from rat brain sigma2 receptor at 10 uM by PDSP assay
T2 sequence (whole entry): T1 sequence (Q5U3Y7 whole entry)

[5] = target: Sodium-dependent noradrenaline transporter (Homo sapiens, UniProt P23975); assay: Displacement of [3H]nisoxetine from human NET expressed in HEK293 cells measured after 30 mins; type: cell-based
Sequence of Sodium-dependent noradrenaline transporter (P23975 whole entry): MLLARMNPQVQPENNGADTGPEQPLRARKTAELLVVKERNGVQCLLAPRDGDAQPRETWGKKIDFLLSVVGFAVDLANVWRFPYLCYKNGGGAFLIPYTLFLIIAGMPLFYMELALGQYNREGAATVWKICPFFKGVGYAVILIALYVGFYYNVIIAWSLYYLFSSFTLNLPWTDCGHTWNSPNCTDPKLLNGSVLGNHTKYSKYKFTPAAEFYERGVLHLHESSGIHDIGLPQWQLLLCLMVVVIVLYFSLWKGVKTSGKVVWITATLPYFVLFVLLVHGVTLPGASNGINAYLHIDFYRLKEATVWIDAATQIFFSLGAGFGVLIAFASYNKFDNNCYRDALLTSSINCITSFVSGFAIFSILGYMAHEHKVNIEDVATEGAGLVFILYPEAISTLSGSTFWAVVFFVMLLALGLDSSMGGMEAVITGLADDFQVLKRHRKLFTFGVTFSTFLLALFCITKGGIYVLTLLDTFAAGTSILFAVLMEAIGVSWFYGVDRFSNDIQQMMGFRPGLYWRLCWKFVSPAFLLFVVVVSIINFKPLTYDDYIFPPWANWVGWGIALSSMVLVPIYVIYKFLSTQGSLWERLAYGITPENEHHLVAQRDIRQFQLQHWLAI

[6] = target: T3, Sodium-dependent serotonin transporter (Homo sapiens, UniProt P31645); assay: biochemical; type: cell-based, HEK293
Target sequence in this assay (P31645 whole entry): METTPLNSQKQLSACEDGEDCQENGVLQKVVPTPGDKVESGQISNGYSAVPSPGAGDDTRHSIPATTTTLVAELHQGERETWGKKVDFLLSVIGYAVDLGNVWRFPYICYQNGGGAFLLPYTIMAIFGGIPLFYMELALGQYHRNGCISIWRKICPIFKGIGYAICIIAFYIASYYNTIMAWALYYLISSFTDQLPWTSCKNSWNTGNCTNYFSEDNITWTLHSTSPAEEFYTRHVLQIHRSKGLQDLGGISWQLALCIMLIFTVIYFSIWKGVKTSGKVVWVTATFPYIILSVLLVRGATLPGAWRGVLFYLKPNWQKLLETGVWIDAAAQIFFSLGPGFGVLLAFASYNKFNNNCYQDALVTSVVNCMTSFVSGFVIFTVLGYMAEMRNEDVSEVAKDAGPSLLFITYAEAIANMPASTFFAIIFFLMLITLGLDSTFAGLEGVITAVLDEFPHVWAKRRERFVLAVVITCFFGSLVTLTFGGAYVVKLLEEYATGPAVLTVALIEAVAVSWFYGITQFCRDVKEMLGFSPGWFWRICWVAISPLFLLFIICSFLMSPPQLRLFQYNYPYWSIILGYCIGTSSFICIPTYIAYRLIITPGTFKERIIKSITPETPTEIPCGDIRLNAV
Description: Displacement of [3H]citalopram from human SERT expressed in HEK293 cells measured after 30 mins

[7] = target: T4, Sodium-dependent dopamine transporter (Homo sapiens, UniProt Q01959); assay: Displacement of [3H]-WIN35428 from human DAT expressed in HEK293 cells at 10 uM measured after 30 mins; type: cell-based
T4 sequence (Q01959 whole entry): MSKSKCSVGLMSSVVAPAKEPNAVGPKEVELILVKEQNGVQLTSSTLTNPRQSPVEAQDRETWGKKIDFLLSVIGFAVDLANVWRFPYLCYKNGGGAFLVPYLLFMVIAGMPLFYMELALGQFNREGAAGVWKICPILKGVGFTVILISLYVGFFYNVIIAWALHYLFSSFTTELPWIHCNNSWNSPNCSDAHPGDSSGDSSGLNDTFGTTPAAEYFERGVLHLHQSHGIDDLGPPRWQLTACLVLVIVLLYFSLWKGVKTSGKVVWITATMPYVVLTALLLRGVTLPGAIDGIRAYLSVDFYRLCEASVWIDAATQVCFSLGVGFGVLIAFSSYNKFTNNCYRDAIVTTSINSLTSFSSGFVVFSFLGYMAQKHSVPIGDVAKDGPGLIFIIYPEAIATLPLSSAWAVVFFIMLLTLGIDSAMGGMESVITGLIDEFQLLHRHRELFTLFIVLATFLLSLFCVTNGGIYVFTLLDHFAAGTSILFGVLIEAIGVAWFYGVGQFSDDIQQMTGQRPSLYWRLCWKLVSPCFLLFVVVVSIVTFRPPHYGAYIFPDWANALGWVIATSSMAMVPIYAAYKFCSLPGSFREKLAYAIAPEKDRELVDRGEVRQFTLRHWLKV

[8] = Permeability of the compound after 18 hrs by PAMPA assay; type: ADME; settings: read-out: permeability
[9] = target: T4, Sodium-dependent dopamine transporter
Description: Displacement of [3H]-WIN35428 from human DAT expressed in HEK293 cells measured after 30 mins

[10] = target: T3, Sodium-dependent serotonin transporter; settings: HEK293, at 10 µM
Target sequence in this assay (P31645 whole entry, looked up): as the sequence (P31645 whole entry) above
Description: Displacement of [3H]citalopram from human SERT expressed in HEK293 cells at 10 uM measured after 30 mins

[11] = target: Sigma non-opioid intracellular receptor 1 (Cavia porcellus) (UniProt Q60492); assay: Binding affinity to sigma1 receptor form guinea pig brain membrane in presence of phenytoin […]
Sequence of Sigma non-opioid intracellular receptor 1 (Cavia porcellus) (Q60492 whole entry): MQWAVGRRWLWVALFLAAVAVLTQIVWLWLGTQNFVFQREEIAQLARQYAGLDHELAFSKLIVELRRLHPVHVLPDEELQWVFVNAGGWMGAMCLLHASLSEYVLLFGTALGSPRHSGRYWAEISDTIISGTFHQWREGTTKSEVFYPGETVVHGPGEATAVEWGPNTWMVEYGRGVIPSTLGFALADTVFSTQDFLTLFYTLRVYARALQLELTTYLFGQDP

[12] = system: Mus musculus; assay: Antinociceptive activity in Kun Ming mouse assessed as reduction in paw licking and flinching time at 80 mg/kg, ip administered 15 mins prior to formalin challenge measured up to 45 mins post formalin dosing relative to vehicle-treated control; type: functional, organism-based
[13] = Toxicity in Kun Ming mouse assessed as decrease in rotarod latency at 40 mg/kg, ip measured after 60 to 120 mins by rotarod test relative to vehicle-treated control; type: organism-based; settings: in vivo

Row | Structure (SMILES) | pKi [1] | pKi [2] | further results
1 | Clc1ccc(OCc2cc(OC[C@@H]3CCCN3)no2)cc1 | 7.89 | 6.86 | –
2 | CN(CCOc1cc(COc2cccc(F)c2)on1)CC1CC1 | 9.05 | 6.50 | –
3 | O=C(Oc1ccccc1)c1cc(OC[C@@H]2CCCN2)no1 | < 5.00 | < 5.00 | inhibition [3]: < 50%; inhibition [4]: < 50%
4 | Fc1ccc(OCc2cc(OC[C@@H]3CCCN3)no2)cc1 | 8.36 | 6.33 | –
5 | Cl.c1ccc(OCc2cc(N3CCNCC3)no2)cc1 | 8.28 | 6.66 | inhibition [3]: > 50%; pKi [5]: 6.79; pKi [6]: < 5.00; inhibition [7]: > 50%; Papp at 18 h [8]: 73.6 nm/s; pKi [9]: 6.30; inhibition [10]: < 50%
6 | COc1ccc(OCc2cc(OC[C@@H]3CCCN3)no2)cc1 | 6.68 | 6.17 | –
7 | CN1CCC(COc2cc(COc3ccccc3)on2)CC1 | 7.02 | 6.67 | –
8 | c1ccc(SCc2cc(OC[C@@H]3CCCN3)no2)cc1 | 7.18 | 5.99 | –
9 | c1ccc(OCc2cc(OC[C@@H]3CCCN3)no2)cc1 | – | – | Activity [11]: inactive; Papp at 18 h [8]: 20 to 40 nm/s
10 | O=C(Nc1ccccc1)c1cc(OC[C@@H]2CCCN2)no1 | 6.89 | < 5.00 | inhibition [4]: < 50%
11 | c1ccc(OCc2cc(OC[C@H]3CCCN3)no2)cc1 | 7.43 | 6.29 | –
12 | CN1CCC[C@H]1COc1cc(COc2ccccc2)on1.Cl | 8.47 | 6.18 | Papp at 18 h [8]: 20 to 40 nm/s
13 | CN(CCOc1cc(COc2ccccc2)on1)C1CCCC1 | 9.30 | 7.13 | –
14 | CN(CCOc1cc(COc2cccc(Cl)c2)on1)CC1CC1 | 8.96 | 6.91 | –
15 | CN(CCOc1cc(COc2ccccc2)on1)C1CCC1 | 8.74 | 6.51 | Activity [11]: inactive
16 | CNCCOc1cc(COc2ccccc2)on1 | 7.09 | < 5.00 | inhibition [4]: < 50%
17 | CN1CCN(c2cc(COc3ccccc3)on2)CC1 | 7.19 | 5.66 | –
18 | Fc1ccc(C(OCCN2CCN(CCCc3ccccc3)CC2)c2ccc(F)cc2)cc1 | – | – | inhibition [7]: > 50%
19 | c1ccc(OCc2cc(N3CCOCC3)no2)cc1 | < 5.00 | < 5.00 | inhibition [3]: < 50%; inhibition [4]: < 50%
20 | c1ccc(OCc2cc(OCCN3CCOCC3)no2)cc1 | 6.39 | < 5.00 | inhibition [4]: < 50%
21 | Cc1cc(OCCN2CCOCC2)nn1-c1ccc2ccccc2c1 | – | – | Activity [11]: inactive; Activity [12]: Active; Papp at 18 h [8]: 20 to 40 nm/s
22 | FC(F)(F)c1cccc(OCc2cc(OC[C@@H]3CCCN3)no2)c1 | 8.18 | 7.06 | –
23 | c1ccc(OCc2cc(OCC3CCNCC3)no2)cc1 | 6.45 | 6.55 | –
24 | Cc1cccc(OCc2cc(OC[C@@H]3CCCN3)no2)c1 | 8.40 | 6.47 | –
25 | Clc1ccccc1OCc1cc(OC[C@@H]2CCCN2)no1 | 8.57 | 6.78 | inhibition [3]: > 50%; pKi [5]: 5.68; pKi [6]: 5.53; inhibition [7]: < 50%; pKi [9]: < 5.00; inhibition [10]: > 50%

Row | Structure (SMILES) | pKi [1] | pKi [2] | further results
26 | CN1CCC[C@H]1COc1cc(COc2cccc(F)c2)on1 | 9.15 | 6.16 | –
27 | NCCCOc1cc(COc2ccccc2)on1 | 5.64 | < 5.00 | inhibition [4]: < 50%
28 | CN1CCC[C@H]1COc1cc(COc2cccc(Cl)c2)on1 | 8.85 | 6.43 | –
29 | Clc1cccc(OCc2cc(N3CCNCC3)no2)c1 | 7.44 | 6.16 | –
30 | c1ccc(OCc2cc(N3CCCCC3)no2)cc1 | < 5.00 | < 5.00 | inhibition [3]: < 50%; inhibition [4]: < 50%
31 | Brc1ccc(OCc2cc(OC[C@@H]3CCCN3)no2)cc1 | 7.74 | 6.86 | –
32 | O=C(Nc1ccccc1)OCc1cc(OC[C@@H]2CCCN2)no1 | 6.52 | < 5.00 | inhibition [4]: < 50%
33 | CCNCCOc1cc(COc2ccccc2)on1 | 8.43 | 6.01 | –
34 | FC(F)(F)c1ccc(OCc2cc(OC[C@@H]3CCCN3)no2)cc1 | 7.88 | 7.04 | –
35 | CN(CCOc1cc(COc2ccccc2)on1)C1CCCCC1 | 9.52 | 7.73 | inhibition [3]: > 50%; pKi [5]: < 5.00; pKi [6]: < 5.00; inhibition [7]: < 50%; pKi [9]: < 5.00; inhibition [10]: < 50%
36 | Clc1cccc(OCc2cc(OC[C@@H]3CCCN3)no2)c1.O=C(O)C(F)(F)F | 8.59 | < 5.00 | inhibition [4]: < 50%; Activity [11]: inactive; Papp at 18 h [8]: 20 to 40 nm/s
37 | NCCOc1cc(COc2ccccc2)on1 | 7.19 | < 5.00 | inhibition [4]: < 50%
38 | CN(CCOc1cc(COc2cccc(F)c2)on1)C1CCCCC1 | 9.30 | 7.61 | –
39 | CN(C)CCOc1cc(COc2ccccc2)on1 | < 5.00 | < 5.00 | inhibition [3]: < 50%; inhibition [4]: < 50%
40 | CCN(C)CCOc1cc(COc2ccccc2)on1 | 7.74 | 6.09 | –
41 | Fc1ccccc1OCc1cc(OC[C@@H]2CCCN2)no1 | 8.21 to 8.22 | 6.40 | inhibition [3]: > 50%; pKi [5]: 5.97; pKi [6]: < 5.00; inhibition [7]: < 50%; pKi [9]: < 5.00; inhibition [10]: < 50%
42 | COc1cccc(OCc2cc(OC[C@@H]3CCCN3)no2)c1 | 7.51 | < 5.00 | inhibition [4]: < 50%
43 | Cl.Fc1cccc(OCc2cc(OC[C@@H]3CCCN3)no2)c1 | 8.85 | 6.56 | Activity [11]: inactive; Papp at 18 h [8]: 20 to 40 nm/s
44 | c1ccc2cc(OCc3cc(OC[C@@H]4CCCN4)no3)ccc2c1 | 7.44 | 6.82 | –
45 | Brc1cccc(OCc2cc(OC[C@@H]3CCCN3)no2)c1 | 8.49 | 7.07 | –
46 | CC(C)C[C@H](CN)CC(=O)O [PREGABALIN] | – | – | Activity [13]: Toxic
47 | CN(CCOc1cc(COc2cccc(Cl)c2)on1)C1CCCCC1 | 9.30 | 7.82 | –
48 | CN1CCC[C@@H]1COc1cc(COc2ccccc2)on1 | 7.64 | 6.39 | –
49 | O=C(c1cc(OC[C@@H]2CCCN2)no1)N1CCc2ccccc21 | 7.86 | < 5.00 | inhibition [4]: < 50%
